Data reported in ChEMBL document CHEMBL1201862, “PubChem BioAssay data set” (2004).
Values belong to the compound of their own block, whether it stands above or below them. The source made the active and inactive calls.

How the values were obtained:
[1] = molecular target: T1, Probable nicotinate-nucleotide adenylyltransferase (Staphylococcus aureus (strain N315), UniProt P65502); assay type: functional, Staphylococcus aureus subsp. aureus N315; conditions: read-out: IC50_Mean;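 as to IC50 Mean: confirmatory dose-response retesting of NadD inhibitor hits first found in an ultra-high-throughput screen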
[2] = molecular target: T2, Corticotropin-releasing factor receptor 2/Corticotropin-releasing factor-binding protein (Homo sapiens, UniProt P24387+Q13324); assay: activators of CRF receptor 2 with binding protein – uHTS hits, confirmation (AID 602473); assay type: functional; conditions: read-out: EC50_Mean
T2 sequence (Q13324 whole entry): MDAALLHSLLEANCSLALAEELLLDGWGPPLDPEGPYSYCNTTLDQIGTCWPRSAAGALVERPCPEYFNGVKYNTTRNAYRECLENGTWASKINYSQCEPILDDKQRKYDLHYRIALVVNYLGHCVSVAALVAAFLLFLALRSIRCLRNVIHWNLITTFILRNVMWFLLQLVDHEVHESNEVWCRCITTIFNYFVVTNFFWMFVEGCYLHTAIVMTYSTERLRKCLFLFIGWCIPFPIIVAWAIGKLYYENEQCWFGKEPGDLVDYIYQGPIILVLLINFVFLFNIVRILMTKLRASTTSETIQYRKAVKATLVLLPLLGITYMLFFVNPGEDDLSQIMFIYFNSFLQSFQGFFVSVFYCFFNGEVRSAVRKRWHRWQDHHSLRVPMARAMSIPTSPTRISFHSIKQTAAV
T2 sequence (P24387 whole entry): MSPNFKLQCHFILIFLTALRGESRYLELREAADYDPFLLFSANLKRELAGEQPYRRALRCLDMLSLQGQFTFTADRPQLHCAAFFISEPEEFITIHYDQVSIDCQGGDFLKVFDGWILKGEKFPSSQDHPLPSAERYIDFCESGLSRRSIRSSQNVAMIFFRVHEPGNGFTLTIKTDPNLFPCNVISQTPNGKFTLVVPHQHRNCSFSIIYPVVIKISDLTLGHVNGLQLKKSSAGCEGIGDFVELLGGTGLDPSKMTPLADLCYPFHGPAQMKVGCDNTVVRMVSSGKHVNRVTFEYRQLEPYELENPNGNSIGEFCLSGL

[3] = molecular target: T3, Runt-related transcription factor 1/Core-binding factor subunit beta (Homo sapiens, UniProt Q01196+Q13951); assay: disruptors of Runt domain/CBFb-SMMHC interaction – biochemical, FRET, Cerulean-Runt, Venus-CBFb-SMMHC, uHTS, […] (AID 1434); assay type: protein assay
[4] = molecular target: T3, Runt-related transcription factor 1/Core-binding factor subunit beta; assay: Runt domain/CBFb-SMMHC interaction disruptors – biochemical, TR-FRET (AID 1438); assay type: protein assay
[5] = molecular target: T1, Probable nicotinate-nucleotide adenylyltransferase; assay type: functional, Staphylococcus aureus subsp. aureus N315
[6] = molecular target: Induced myeloid leukemia cell differentiation protein Mcl-1 (Homo sapiens, UniProt Q07820); assay type: functional
[7] = molecular target: T4, Low molecular weight phosphotyrosine protein phosphatase (Homo sapiens, UniProt P24666); assay type: functional; conditions: read-out: IC50_Mean;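 also: Dose-response confirmation assay measuring inhibition of LMPTP enzyme activity by fluorescence intensity read-out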
T4 sequence (P24666 whole entry): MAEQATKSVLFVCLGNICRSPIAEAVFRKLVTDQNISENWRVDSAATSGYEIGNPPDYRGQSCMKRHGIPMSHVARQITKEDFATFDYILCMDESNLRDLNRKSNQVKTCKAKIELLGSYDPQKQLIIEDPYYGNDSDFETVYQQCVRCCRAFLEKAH

[8] = molecular target: T5, Tyrosine-protein phosphatase non-receptor type 7 (Homo sapiens, UniProt P35236); assay type: functional
T5 sequence (P35236 whole entry): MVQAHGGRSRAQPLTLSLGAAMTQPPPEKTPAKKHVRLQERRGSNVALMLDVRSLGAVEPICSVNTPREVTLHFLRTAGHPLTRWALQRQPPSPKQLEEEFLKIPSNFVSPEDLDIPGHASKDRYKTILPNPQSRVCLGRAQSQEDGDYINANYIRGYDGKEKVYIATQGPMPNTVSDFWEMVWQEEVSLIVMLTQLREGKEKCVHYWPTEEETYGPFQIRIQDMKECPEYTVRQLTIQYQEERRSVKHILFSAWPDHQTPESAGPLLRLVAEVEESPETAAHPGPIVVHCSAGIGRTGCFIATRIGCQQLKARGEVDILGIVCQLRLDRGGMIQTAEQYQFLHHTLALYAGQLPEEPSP

[9] = molecular target: T6, Tyrosine-protein phosphatase non-receptor type 22 (Homo sapiens, UniProt Q9Y2R2); assay type: functional
T6 sequence (Q9Y2R2 whole entry): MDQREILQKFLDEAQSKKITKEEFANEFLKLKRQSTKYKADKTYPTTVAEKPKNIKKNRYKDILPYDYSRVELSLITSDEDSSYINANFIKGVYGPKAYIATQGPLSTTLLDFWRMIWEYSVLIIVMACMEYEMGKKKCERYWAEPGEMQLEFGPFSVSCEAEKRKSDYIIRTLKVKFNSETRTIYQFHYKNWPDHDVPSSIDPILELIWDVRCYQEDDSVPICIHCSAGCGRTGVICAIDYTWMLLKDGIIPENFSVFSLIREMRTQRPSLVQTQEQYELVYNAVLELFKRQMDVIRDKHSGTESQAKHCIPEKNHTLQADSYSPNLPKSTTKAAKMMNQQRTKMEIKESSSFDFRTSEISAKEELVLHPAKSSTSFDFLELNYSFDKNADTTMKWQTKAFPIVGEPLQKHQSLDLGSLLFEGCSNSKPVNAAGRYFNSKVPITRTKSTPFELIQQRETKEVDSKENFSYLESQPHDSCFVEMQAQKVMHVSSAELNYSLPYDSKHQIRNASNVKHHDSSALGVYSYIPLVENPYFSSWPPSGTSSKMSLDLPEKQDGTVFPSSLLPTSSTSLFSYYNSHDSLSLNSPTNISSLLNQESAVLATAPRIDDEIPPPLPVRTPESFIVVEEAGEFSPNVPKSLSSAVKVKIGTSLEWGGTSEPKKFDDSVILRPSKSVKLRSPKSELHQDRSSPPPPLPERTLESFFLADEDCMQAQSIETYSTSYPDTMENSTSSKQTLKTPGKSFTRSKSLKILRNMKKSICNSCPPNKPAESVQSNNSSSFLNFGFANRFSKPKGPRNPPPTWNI

[10] = molecular target: T6, Tyrosine-protein phosphatase non-receptor type 22; assay type: functional; remark: listed apart in the source
[11] = molecular target: Coagulation factor XII (Homo sapiens, UniProt P00748); assay type: functional;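 also: activated factor XIIa alpha cleaving a fluorogenic AMC peptide substrate; inhibitor potency from loss of enzyme activity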
Chain of Coagulation factor XII (P00748 20-372 limits assumed): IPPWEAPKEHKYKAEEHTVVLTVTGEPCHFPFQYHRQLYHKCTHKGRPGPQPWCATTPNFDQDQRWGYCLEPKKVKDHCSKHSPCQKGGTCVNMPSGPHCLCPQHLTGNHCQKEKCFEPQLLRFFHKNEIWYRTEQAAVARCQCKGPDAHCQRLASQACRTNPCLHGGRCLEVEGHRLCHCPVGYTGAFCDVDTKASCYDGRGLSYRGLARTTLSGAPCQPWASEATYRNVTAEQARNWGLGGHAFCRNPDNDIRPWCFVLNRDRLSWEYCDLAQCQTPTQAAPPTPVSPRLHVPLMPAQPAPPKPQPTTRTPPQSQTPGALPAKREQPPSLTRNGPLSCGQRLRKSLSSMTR
Chain of Coagulation factor XII (P00748 373-615 limits assumed): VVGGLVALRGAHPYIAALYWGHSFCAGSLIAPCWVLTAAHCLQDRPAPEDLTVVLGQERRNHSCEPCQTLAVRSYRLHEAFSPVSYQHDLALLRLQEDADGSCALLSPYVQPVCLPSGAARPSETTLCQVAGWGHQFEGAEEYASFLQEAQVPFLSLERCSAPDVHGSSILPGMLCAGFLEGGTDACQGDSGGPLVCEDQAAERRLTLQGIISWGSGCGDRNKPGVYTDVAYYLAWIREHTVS

T3 sequence (Q01196 whole entry, the tested form may be a part): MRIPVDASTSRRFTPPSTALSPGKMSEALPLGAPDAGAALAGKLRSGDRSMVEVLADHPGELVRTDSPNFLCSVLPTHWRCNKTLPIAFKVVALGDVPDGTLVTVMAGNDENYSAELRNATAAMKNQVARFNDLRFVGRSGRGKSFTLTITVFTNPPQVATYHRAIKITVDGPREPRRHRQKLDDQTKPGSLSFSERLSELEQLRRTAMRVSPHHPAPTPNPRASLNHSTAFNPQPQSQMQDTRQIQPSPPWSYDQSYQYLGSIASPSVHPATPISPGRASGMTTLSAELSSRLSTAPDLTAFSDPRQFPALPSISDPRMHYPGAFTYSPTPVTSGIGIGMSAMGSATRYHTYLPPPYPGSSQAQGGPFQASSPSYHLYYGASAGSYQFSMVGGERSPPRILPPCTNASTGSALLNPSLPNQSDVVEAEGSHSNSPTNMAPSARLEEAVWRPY
T3 sequence (Q13951 whole entry, the tested form may be a part): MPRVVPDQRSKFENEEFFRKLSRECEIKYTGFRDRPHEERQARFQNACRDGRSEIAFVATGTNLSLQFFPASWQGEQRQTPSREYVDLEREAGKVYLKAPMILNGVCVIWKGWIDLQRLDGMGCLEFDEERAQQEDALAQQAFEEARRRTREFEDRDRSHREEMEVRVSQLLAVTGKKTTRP
Chain of Induced myeloid leukemia cell differentiation protein Mcl-1 (Q07820 whole entry): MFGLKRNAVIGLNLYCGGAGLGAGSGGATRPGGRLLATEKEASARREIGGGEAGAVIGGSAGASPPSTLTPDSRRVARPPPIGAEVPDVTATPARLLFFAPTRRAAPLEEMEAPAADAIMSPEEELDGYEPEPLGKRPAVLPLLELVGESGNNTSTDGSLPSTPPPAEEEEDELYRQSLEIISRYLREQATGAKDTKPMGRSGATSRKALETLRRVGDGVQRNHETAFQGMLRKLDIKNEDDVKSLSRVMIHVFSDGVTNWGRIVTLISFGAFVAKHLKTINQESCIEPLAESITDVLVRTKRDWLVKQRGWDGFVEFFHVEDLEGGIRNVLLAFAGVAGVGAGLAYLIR

Compound: Oc1nc(C(Cl)Cl)nc2sc3c(c12)CCN(Cc1ccccc1)C3
IC50 [1]: 18.7 µM (active) | EC50 [2]: > 53 µM (inactive) | IC50 [3]: 2.89 µM (active) | IC50 [4]: 13.4 µM (active) | IC50 [5]: 9.04 µM (active) | IC50 [6]: 3.75 µM (not active) | IC50 [7]: 7.87 µM (active)

IC50 [8]: > 79.4 µM (inactive) | IC50 [9]: > 79.4 µM (inactive) | IC50 [10]: > 79.4 µM (inactive)
Compound: CCCC(=O)NCCc1cc2ccc(C)c(C)c2nc1O

IC50 [11]: > 50 µM (inactive)
Compound: COc1cc(-c2nnco2)cc(OC)c1OC
